This passage reports IC50 results from BindingDB's records for patent US20240034727 (Stingray Therapeutics, 2024).

This assay deals with T1, Ectonucleotide pyrophosphatase/phosphodiesterase family member 1 (Homo sapiens, UniProt P22413).
T1 sequence (P22413 whole entry): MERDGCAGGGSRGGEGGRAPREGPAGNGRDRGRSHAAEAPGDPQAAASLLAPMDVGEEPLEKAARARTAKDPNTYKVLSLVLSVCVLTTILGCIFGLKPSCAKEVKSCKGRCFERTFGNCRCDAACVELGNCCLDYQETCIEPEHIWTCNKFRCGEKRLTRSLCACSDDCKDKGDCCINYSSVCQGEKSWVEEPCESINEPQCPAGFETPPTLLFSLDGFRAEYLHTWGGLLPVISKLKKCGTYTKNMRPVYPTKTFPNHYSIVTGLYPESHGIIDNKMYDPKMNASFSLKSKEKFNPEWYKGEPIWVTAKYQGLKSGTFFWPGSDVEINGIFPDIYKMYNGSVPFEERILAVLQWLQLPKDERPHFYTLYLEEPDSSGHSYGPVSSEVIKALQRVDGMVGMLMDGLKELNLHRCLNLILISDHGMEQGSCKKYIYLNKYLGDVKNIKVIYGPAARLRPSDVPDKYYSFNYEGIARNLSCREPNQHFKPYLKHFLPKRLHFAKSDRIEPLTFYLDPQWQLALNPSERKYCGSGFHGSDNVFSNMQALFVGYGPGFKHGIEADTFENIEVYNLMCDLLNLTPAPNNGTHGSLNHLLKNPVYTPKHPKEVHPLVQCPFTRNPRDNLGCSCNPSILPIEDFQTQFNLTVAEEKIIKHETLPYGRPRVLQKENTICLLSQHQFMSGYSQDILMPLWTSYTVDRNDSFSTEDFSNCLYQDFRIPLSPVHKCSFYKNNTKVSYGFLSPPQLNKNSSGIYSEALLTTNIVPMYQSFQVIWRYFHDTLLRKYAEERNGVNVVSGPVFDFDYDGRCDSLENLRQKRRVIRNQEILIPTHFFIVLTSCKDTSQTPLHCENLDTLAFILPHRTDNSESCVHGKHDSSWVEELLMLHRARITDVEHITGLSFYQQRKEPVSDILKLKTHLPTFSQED
In words: ENPP1 Inhibition Assay. As to the method:
Assay Buffer: 1 mM CaCl2), 0.2 mM ZnCl2, 50 mM Tris, pH 9.0. Substrate: 8 mM Thymidine 5′-monophosphate p-nitrophenol ester sodium salt (Sigma Cat #T4510). Enzyme: 5 ng/L Recombinant Human ENPP-1 Protein (R&D Cat #6136-EN-010) in DMSO in 96-well clear assay plates. An eight point serial dilution of drugs was prepared in 10 in assay buffer with the final assay concentrations starting at 10 μM, 3 μM, 1 μM, 0.3 μM and 0 μM. A dilution of DMSO was included as a control. The assay plate was set up as follows with each well in duplicate: 81 μL assay buffer+10 μL ENPP1 inhibitor or DMSO+5 μL Substrate+4 μL Enzyme. Both the enzyme and substrate was added to opposite sides of the well to ensure that there was no interaction until all wells had both components. The plate was then centrifuged gently for 10 seconds, followed by an incubation at 37 C. for 45 minutes. The reaction was quantified by measuring absorbance at 405 nm using the Envision. IC50 values are determined using GraphPad Prism 5 software. The data were entered as an X-Y plot into the software as percent inhibition for each concentration of the drug. The concentration values of the drug were log transformed and the nonlinear regression was carried out using the sigmoidal dose-response (variable slope) option within the GraphPad software to model the data and calculate IC50 values. […]

Consider `O=C(CSc1nc(C(=O)O)c[nH]1)NCc1cccc(Cl)c1` [US20240034727, Compound I-21], for which the IC50 (in general, the concentration that gives 50% inhibition) was > 10 µM.
`COc1ccc(NC(=O)CSc2nc(C(=O)O)c[nH]2)cc1Cl` [US20240034727, Compound I-35]: the IC50 was < 0.2 µM.
